Source: ChEMBL document CHEMBL5236617, “Rapid Evolution of a Fragment-like Molecule to Pan-Metallo-Beta-Lactamase Inhibitors: Initial Leads toward Clinical Candidates” (J Med Chem, 2022)

What was measured:
[1] = Inhibition of GST-tagged bacterial beta-lactamase VIM-1 expressed in Escherichia coli BL21(DE3) using CCF2-FA as substrate by fluorescence assay; design: species or system Bacteria
[2] = Inhibition of GST-tagged bacterial beta-lactamase […] expressed in Escherichia coli BL21(DE3) using CCF2-FA as substrate by fluorescence assay; design: species or system Bacteria
[3] = Inhibition of GST-tagged bacterial beta-lactamase IMP-1 expressed in Escherichia coli BL21(DE3) using CCF2-FA as substrate by fluorescence assay; design: species or system Bacteria
[4] = system: Escherichia coli; experiment: Potentiation of imipenem-induced antibacterial activity against NDM-1 expressing Escherichia coli assessed as imipenem MIC incubated for 22 to 24 hrs (reference value: 32 ug/ml); format: functional; settings: time 22-24 hrs
[5] = system: Serratia marcescens; experiment: Potentiation of imipenem-induced antibacterial activity against IMP-1 expressing Serratia marcescens assessed as imipenem MIC incubated for 22 to 24 hrs (reference value: 16 ug/ml); format: functional; settings: time 22-24 hrs
[6] = system: Klebsiella pneumoniae; experiment: Potentiation of imipenem-induced antibacterial activity against VIM-1 expressing Klebsiella pneumoniae assessed as imipenem MIC incubated for 22 to 24 hrs (reference value: 16 ug/ml); format: functional; settings: time 22-24 hrs
[7] = Selectivity ratio of MITC50 for VIM-1 expressing Klebsiella pneumoniae to IC50 for GST-tagged bacterial beta-lactamase VIM-1
[8] = Selectivity ratio of MITC50 for NDM-1 expressing Escherichia coli to IC50 for GST-tagged bacterial beta-lactamase […]
[9] = Selectivity ratio of MITC50 for IMP-1 expressing Serratia marcescens to IC50 for GST-tagged bacterial beta-lactamase IMP-1

IC50 [1] | IC50 [2] | IC50 [3] | Selectivity ratio [7] | Selectivity ratio [9] | Structure (SMILES) | MITC95 [4] | MITC95 [5] | MITC95 [6] | Selectivity ratio [8]
90 nM | 3 nM | 330 nM | – | – | NS(=O)(=O)c1cccc(-c2ccccn2)c1-c1nn[nH]n1 | 0.78 µM | – | 25 µM | –
58 nM | 2.4 nM | 46 nM | – | – | NS(=O)(=O)c1cccc(-c2ccc(CO)cc2)c1-c1nn[nH]n1 | – | – | 50 µM | –
285 nM | 36 nM | 485 nM | 87 | 19 | NS(=O)(=O)c1cccc(-c2ccncc2)c1-c1nn[nH]n1 | 0.45 µM | 9.37 µM | 25 µM | 12
4130 nM | 36 nM | 767 nM | – | – | NS(=O)(=O)c1ccnc(-c2ccc(CO)cc2)c1-c1nn[nH]n1 | 2.3 µM | 37 µM | >200 µM | –

The remaining lines, values behind:

Structure (SMILES) | IC50 [1] | IC50 [2] | IC50 [3] | Selectivity ratio [7] | Selectivity ratio [9] | MITC95 [4] | MITC95 [5] | MITC95 [6] | Selectivity ratio [8]
NCCNC(=O)C[N+]12CC[N+](Cc3ccc(-c4ccc(C[C@H](C(=O)O)[C@H](Cc5ccccc5)C(=O)O)cc4)cc3)(CC1)CC2 | 2.8 nM | > 200 nM | – | – | – | – | – | – | –
c1ccc(-c2ccccc2-c2nn[nH]n2)cc1 | 22 nM | 44 nM | 2 nM | – | – | – | – | – | –
NS(=O)(=O)c1cccc(-c2ccnc(CO)c2)c1-c1nn[nH]n1 | – | – | – | – | – | 0.39 µM | 50 µM | – | –
CNS(=O)(=O)c1cccc(-c2ccc(C)cc2)c1-c1nnn[nH]1 | 18000 nM | 15800 nM | > 20000 nM | – | – | – | – | – | –
NS(=O)(=O)c1nccc(-c2ccccc2)c1-c1nn[nH]n1 | 201 nM | 35 nM | 375 nM | – | – | <0.195 µM | – | – | –
O=C(O)COc1ccc2c(c1)CCN(C(=O)C(CS)CCc1ccccc1)C2C(=O)O (centres undefined) | 2.48 nM | 0.243 nM | 0.155 nM | – | – | – | – | – | –
CCCc1c(OCc2cccc(-c3ccccc3-c3nnn[nH]3)c2)ccc(C(C)=O)c1O | 23 nM | 35 nM | 1 nM | – | – | – | – | – | –
